# Reference: ChEMBL document CHEMBL5244223, “l,8-Naphthalimide based DNA intercalators and anticancer agents. A systematic review from 2007 to 2017” (Eur J Med Chem, 2018)
# Legend:
# [1] = tested on: HeLa; assay: Cytotoxicity against human HeLa cells assessed as inhibition of cell growth by MTT assay; format: functional, cell-based
# [2] = target: Salmon testes DNA; assay: Binding affinity to salmon Testis DNA assessed as equilibrium binding constant by steady-state fluorescence spectroscopic analysis; settings: Salmo salar
# [3] = tested on: HCT-15; assay: Cytotoxicity against human HCT-15 cells assessed as inhibition of cell growth incubated for 24 hrs by sulforhodamine B assay; format: functional, cell-based; settings: HCT-15, 24 h
# [4] = tested on: BGC-823; assay: Antiproliferative activity against human BGC-823 cells assessed as inhibition of cell proliferation incubated for 24 hrs by MTT assay; format: functional, cell-based; settings: BGC-823, 24 h
# [5] = tested on: L02; assay: Antiproliferative activity against human HL7702 cells assessed as inhibition of cell proliferation incubated for 24 hrs by MTT assay; format: functional, cell-based; settings: L02, 24 h
# [6] = tested on: MCF7; assay: Antiproliferative activity against human MCF7 cells assessed as inhibition of cell proliferation incubated for 24 hrs by MTT assay; format: functional, cell-based; settings: MCF7, 24 h
# [7] = tested on: Clupea harengus; assay: Binding affinity to Atlantic herring DNA assessed as binding constant by fluorescence based EtBr-UV absorption spectral analysis
# [8] = tested on: HCT-116; assay: Cytotoxicity against human HCT-116 cells assessed as inhibition of cell growth incubated for 72 hrs by MTT assay; format: functional, cell-based; settings: HCT-116, 72 h
# [9] = tested on: Pseudomonas aeruginosa; assay: Antibacterial activity against Pseudomonas aeruginosa assessed as inhibition of bacterial growth incubated for 24 hrs by two-fold serial dilution assay; format: functional
# [10] = tested on: Escherichia coli; assay: Antibacterial activity against Escherichia coli JM109 assessed as inhibition of bacterial growth incubated for 24 hrs by two-fold serial dilution assay; format: functional
# [11] = tested on: Staphylococcus aureus; assay: Antibacterial activity against Staphylococcus aureus ATCC25923 assessed as inhibition of bacterial growth incubated for 24 hrs by two-fold serial dilution assay; format: functional
# [12] = tested on: Staphylococcus aureus; assay: Antibacterial activity against methicillin-resistant Staphylococcus aureus N315 assessed as inhibition of bacterial growth incubated for 24 hrs by two-fold serial dilution assay; format: functional
# [13] = tested on: Micrococcus luteus; assay: Antibacterial activity against Micrococcus luteus assessed as inhibition of bacterial growth incubated for 24 hrs by two-fold serial dilution assay; format: functional
# [14] = tested on: Bacillus subtilis; assay: Antibacterial activity against Bacillus subtilis ATCC6633 assessed as inhibition of bacterial growth incubated for 24 hrs by two-fold serial dilution assay; format: functional
# [15] = tested on: Salmonella typhi; assay: Antibacterial activity against Salmonella enterica subsp. enterica serovar Typhi assessed as inhibition of bacterial growth incubated for 24 hrs by two-fold serial dilution assay; format: functional
# [16] = tested on: Proteus; assay: Antibacterial activity against Proteus ATCC13315 assessed as inhibition of bacterial growth incubated for 24 hrs by two-fold serial dilution assay; format: functional
# [17] = tested on: Jurkat; assay: Antiproliferative activity against human Jurkat cells assessed as inhibition of cell proliferation incubated for 72 hrs by MTT assay; format: functional, cell-based
# [18] = tested on: HepG2; assay: Cytotoxicity against human HepG2 cells assessed as inhibition of cell growth incubated for 48 hrs by MTT assay; format: functional, cell-based; settings: HepG2, 48 h
# [19] = tested on: HCT-116; assay: Cytotoxicity against human HCT-116 cells assessed as inhibition of cell growth incubated for 48 hrs by MTT assay; format: functional, cell-based; settings: HCT-116, 48 h
# [20] = tested on: K562; assay: Cytotoxicity against human K562 cells assessed as inhibition of cell growth incubated for 48 hrs by MTT assay; format: functional, cell-based; settings: K562, 48 h
# [21] = tested on: SMMC-7721; assay: Cytotoxicity against human SMMC-7721 cells assessed as inhibition of cell growth incubated for 48 hrs by MTT assay; format: functional, cell-based; settings: SMMC-7721, 48 h
# [22] = tested on: MCF7; assay: Antiproliferative activity against human MCF7 cells assessed as inhibition of cell proliferation incubated for 48 hrs by MTT assay; format: functional, cell-based; settings: MCF7, 48 h
# [23] = tested on: SMMC-7721; assay: Antiproliferative activity against human SMMC-7721 cells assessed as inhibition of cell proliferation incubated for 48 hrs by MTT assay; format: functional, cell-based; settings: SMMC-7721, 48 h
# [24] = tested on: HeLa; assay: Antiproliferative activity against human HeLa cells assessed as inhibition of cell proliferation incubated for 48 hrs by MTT assay; format: functional, cell-based
# [25] = tested on: Calf thymus DNA; assay: Binding affinity to calf thymus DNA assessed as DNA intercalation by measuring change in melting temperature by thermal denaturation assay; format: nucleic-acid assay; settings: Bos taurus
structure (smiles),measurement,setting,value
CN(C)CCN1C(=O)c2cccc3c2c(cc2nc(C(F)(F)F)c(C(F)(F)F)nc23)C1=O,IC50,[1],3800 nM
Nc1ccc2c3c(cccc13)C(=O)N(CC[n+]1ccccc1)C2=O,Kb,[2],1.38 10^5/M
O=C1c2cccc3cccc(c23)C(=O)N1CCCn1cc(-c2ccccc2)nn1,IC50,[3],2440 nM
CN(C)CCN1C(=O)c2cccc3c2c(cc2[nH]c(-c4c[nH]c5ccccc45)nc23)C1=O,IC50,[4],700 nM
same,IC50,[5],700 nM
same,IC50,[6],700 nM
O=C1c2cccc3cccc(c23)C(=O)N1CCCNCc1ccco1,IC50,[3],2440 nM
NCCCCN1C(=O)c2cccc3cccc(c23)C1=O,IC50,[3],2440 nM
NCCNCCCCCN1C(=O)c2cccc3cccc(c23)C1=O,Kb,[7],1.15 10^4/M
O=C1c2cccc3cccc(c23)C(=O)N1CCCN(CCCN1C(=O)c2cccc3cccc(c23)C1=O)CCN(CCO)CCO,IC50,[8],> 15000 nM
O=C1c2cccc3cccc(c23)C(=O)N1CCCNCCCN(CCCl)CCCl,IC50,[8],1400 nM
CN(C)CCCN1C(=O)c2cccc3c2c(cc2[nH]c(-c4c[nH]c5ccccc45)nc23)C1=O,IC50,[4],700 nM
same,IC50,[5],700 nM
same,IC50,[6],700 nM
O=C1c2cccc3cccc(c23)C(=O)N1CCCNCCN(CCO)CCO,IC50,[8],> 40000 nM
O=C1c2cccc3cccc(c23)C(=O)N1CCCNCc1cccs1,IC50,[3],2440 nM
O=C1c2cccc3c(Sc4nc5ccccc5n4Cc4cccc(Cl)c4)ccc(c23)C(=O)N1CCCCn1cncn1,MIC,[9],> 512 µg/mL
same,MIC,[10],> 512 µg/mL
same,MIC,[11],> 512 µg/mL
same,MIC,[12],> 512 µg/mL
same,MIC,[13],> 512 µg/mL
same,MIC,[14],> 512 µg/mL
same,MIC,[15],> 512 µg/mL
same,MIC,[16],> 512 µg/mL
O=C1c2cccc3cccc(c23)C(=O)N1CCNCc1ccccn1,IC50,[17],5580 nM
CCCCCOC(=O)c1ccc2c3c(cccc13)C(=O)N(CCN(C)C)C2=O,IC50,[18],> 50000 nM
same,IC50,[19],> 50000 nM
same,IC50,[20],> 50000 nM
same,IC50,[21],> 50000 nM
CN(C)CCNCCCN1C(=O)c2cccc3cccc(c23)C1=O,Kb,[7],1.15 10^4/M
CN(C)CCN1C(=O)c2cccc3cc(-n4cc(-c5ccccc5)nn4)cc(c23)C1=O,IC50,[22],300 nM
same,IC50,[23],300 nM
same,IC50,[24],300 nM
O=C1c2cccc3c2c(cc2[nH]c(-c4c[nH]c5ccccc45)nc23)C(=O)N1NCc1ccccc1,IC50,[4],700 nM
same,IC50,[5],700 nM
same,IC50,[6],700 nM
CCCOC(=O)c1ccc2c3c(cccc13)C(=O)N(CCN(C)C)C2=O,IC50,[18],> 50000 nM
same,IC50,[19],> 50000 nM
same,IC50,[20],> 50000 nM
same,IC50,[21],> 50000 nM
O=C1c2cccc3cc(-n4ccnn4)cc(c23)C(=O)N1CCN1CCNCC1,IC50,[22],300 nM
same,IC50,[23],300 nM
same,IC50,[24],300 nM
NCCNCCCCN1C(=O)c2cccc3cccc(c23)C1=O,Kb,[7],1.15 10^4/M
CCN(CC)CCN1C(=O)c2cccc3c2c(cc2[nH]c(-c4c[nH]c5ccccc45)nc23)C1=O,IC50,[4],8200 nM
same,IC50,[5],8200 nM
same,IC50,[6],8200 nM
O=C1c2cccc3cc(-n4ccnn4)cc(c23)C(=O)N1CCO,IC50,[22],300 nM
same,IC50,[23],300 nM
same,IC50,[24],300 nM
CN(C)CCN1C(=O)c2cccc3c2c(cc2nccnc23)C1=O,IC50,[1],1900 nM
same,ΔTm,[25],3.9 °C
O=C1c2cccc3c2c(cc2[nH]c(-c4c[nH]c5ccccc45)nc23)C(=O)N1CCCO,IC50,[4],700 nM
same,IC50,[5],700 nM
same,IC50,[6],700 nM
CCCCN1C(=O)c2cccc3cc(-n4cc(-c5ccccc5)nn4)cc(c23)C1=O,IC50,[22],300 nM
same,IC50,[23],300 nM
same,IC50,[24],300 nM
O=C1c2cccc3cccc(c23)C(=O)N1CCCCn1cc(-c2ccccc2)nn1,IC50,[3],2440 nM
O=C1c2cccc3c(Sc4nc5ccccc5n4Cc4ccc(Cl)cc4Cl)ccc(c23)C(=O)N1CCCCn1c[n+](Cc2ccccc2Cl)cn1,MIC,[9],2 µg/mL
same,MIC,[10],2 µg/mL
same,MIC,[11],2 µg/mL
same,MIC,[12],2 µg/mL
same,MIC,[13],2 µg/mL
same,MIC,[14],2 µg/mL
same,MIC,[15],2 µg/mL
same,MIC,[16],2 µg/mL
NCCNCCCN1C(=O)c2cccc3cccc(c23)C1=O,Kb,[7],1.15 10^4/M
